US6352958B1, “Cycloimido-substituted benzofused heterocyclic herbicides” (FMC Corporation, priority 1997, dated 2002)

Legend:
Assay type in all cases: in vivo
[1] = system: soybean (Glycine max var. Winchester); experiment: Preemergence herbicidal activity, soybean; conditions: Rate of Application 0.3 Kg/Ha, examined after 12-17 days
[2] = system: wheat (Triticum aestivum var. Lew); experiment: Preemergence herbicidal activity, wheat; conditions: Rate of Application 0.3 Kg/Ha, examined after 12-17 days
[3] = system: field corn (Zea mays var. Pioneer 3732); experiment: Preemergence herbicidal activity, corn; conditions: Rate of Application 0.3 Kg/Ha, examined after 12-17 days
[4] = system: velvetleaf (Abutilon theophrasti); experiment: Preemergence herbicidal activity, velvetleaf; conditions: Rate of Application 0.3 Kg/Ha, examined after 12-17 days
[5] = system: morningglory (Ipomea lacunosa or Ipomea hederacea); experiment: Preemergence herbicidal activity, morningglory; conditions: Rate of Application 0.3 Kg/Ha, examined after 12-17 days
[6] = system: common chickweed (Stellaria media); experiment: Preemergence herbicidal activity, chickweed; conditions: Rate of Application 0.3 Kg/Ha, examined after 12-17 days
[7] = system: common cocklebur (Xanthium strumarium L.); experiment: Preemergence herbicidal activity, cocklebur; conditions: Rate of Application 0.3 Kg/Ha, examined after 12-17 days
[8] = system: blackgrass (Aloepecurus myosuroides); experiment: Preemergence herbicidal activity, blackgrass; conditions: Rate of Application 0.3 Kg/Ha, examined after 12-17 days
[9] = system: green foxtail (Setaria viridis); experiment: Preemergence herbicidal activity, green foxtail; conditions: Rate of Application 0.3 Kg/Ha, examined after 12-17 days
[10] = system: Johnsongrass (Sorghum halepense); experiment: Preemergence herbicidal activity, johnsongrass; conditions: Rate of Application 0.3 Kg/Ha, examined after 12-17 days
[11] = system: soybean (Glycine max var. Winchester); experiment: Postemergence herbicidal activity, soybean; conditions: rate of application 0.3 Kg/Ha, rated after 12-17 days
[12] = system: wheat (Triticum aestivum var. Lew); experiment: Postemergence herbicidal activity, wheat; conditions: rate of application 0.3 Kg/Ha, rated after 12-17 days
[13] = system: field corn (Zea mays var. Pioneer 3732); experiment: Postemergence herbicidal activity, corn; conditions: rate of application 0.3 Kg/Ha, rated after 12-17 days
[14] = system: velvetleaf (Abutilon theophrasti); experiment: Postemergence herbicidal activity, velvetleaf; conditions: rate of application 0.3 Kg/Ha, rated after 12-17 days
[15] = system: morningglory (Ipomea lacunosa or Ipomea hederacea); experiment: Postemergence herbicidal activity, morningglory; conditions: rate of application 0.3 Kg/Ha, rated after 12-17 days
[16] = system: common chickweed (Stellaria media); experiment: Postemergence herbicidal activity, chickweed; conditions: rate of application 0.3 Kg/Ha, rated after 12-17 days
[17] = system: common cocklebur (Xanthium strumarium L.); experiment: Postemergence herbicidal activity, cocklebur; conditions: rate of application 0.3 Kg/Ha, rated after 12-17 days
[18] = system: blackgrass (Aloepecurus myosuroides); experiment: Postemergence herbicidal activity, blackgrass; conditions: rate of application 0.3 Kg/Ha, rated after 12-17 days
[19] = system: green foxtail (Setaria viridis); experiment: Postemergence herbicidal activity, green foxtail; conditions: rate of application 0.3 Kg/Ha, rated after 12-17 days
[20] = system: Johnsongrass (Sorghum halepense); experiment: Postemergence herbicidal activity, johnsongrass; conditions: rate of application 0.3 Kg/Ha, rated after 12-17 days

Structure (SMILES)	PREEMERGENCE HERBICIDAL ACTIVITY (% CONTROL) SOY [1] [%]	PREEMERGENCE HERBICIDAL ACTIVITY (% CONTROL) WHT [2] [%]	PREEMERGENCE HERBICIDAL ACTIVITY (% CONTROL) CRN [3] [%]	PREEMERGENCE HERBICIDAL ACTIVITY (% CONTROL) ABUTH [4] [%]	PREEMERGENCE HERBICIDAL ACTIVITY (% CONTROL) IPOSS [5] [%]	PREEMERGENCE HERBICIDAL ACTIVITY (% CONTROL) STEME [6] [%]	PREEMERGENCE HERBICIDAL ACTIVITY (% CONTROL) XANPE [7] [%]	PREEMERGENCE HERBICIDAL ACTIVITY (% CONTROL) ALOMY [8] [%]	PREEMERGENCE HERBICIDAL ACTIVITY (% CONTROL) SETVI [9] [%]	PREEMERGENCE HERBICIDAL ACTIVITY (% CONTROL) SORHA [10] [%]	Postemergence herbicidal activity (% control) SOY [11] [%]	Postemergence herbicidal activity (% control) WHT [12] [%]	Postemergence herbicidal activity (% control) CRN [13] [%]	Postemergence herbicidal activity (% control) ABUTH [14] [%]	Postemergence herbicidal activity (% control) IPOSS [15] [%]	Postemergence herbicidal activity (% control) STEME [16] [%]	Postemergence herbicidal activity (% control) XANPE [17] [%]	Postemergence herbicidal activity (% control) ALOMY [18] [%]	Postemergence herbicidal activity (% control) SETVI [19] [%]	Postemergence herbicidal activity (% control) SORHA [20] [%]
Cn1c(C(F)(F)F)cc(=O)n(-c2c(F)cc(Cl)c3oc(C(C)(C)C)nc23)c1=O [Compound 30]	100	100	95	100	100	100	90	100	100	100	95	80	90	100	100	100	100	90	100	100
Cn1c(C(F)(F)F)cc(=O)n(-c2c(F)cc(Cl)c3oc(N)nc23)c1=O [Compound 38]	60	50	80	100	100	0	70	30	75	60	70	35	60	100	100	0	45	20	40	50
Cn1c(C(F)(F)F)cc(=O)n(-c2c(F)cc(Br)c3oc(N)nc23)c1=O [Compound 98]	50	40	80	80	75	70	60	10	30	65	40	10	50	60	20	5	20	5	40	20
Cn1c(C(F)(F)F)cc(=O)n(-c2c(F)cc(Br)c3oc(NS(C)(=O)=O)nc23)c1=O [Compound 108]	0	0	10	70	50	40	10	50	50	30	50	20	60	20	60	0	10	10	70	20
Cc1nc2c(-n3c(=O)cc(C(F)(F)F)n(N)c3=O)c(F)cc(Cl)c2o1 [Compound 112]	100	100	100	100	100	100	100	100	100	100	100	100	100	100	100	100	100	100	100	100
CCCC(C)c1cc2c(Cl)cc(F)c(-n3c(=O)cc(C(F)(F)F)n(C)c3=O)c2o1 (centres unmarked) [Compound 229]	100	70	90	100	100	100	95	80	100	100	95	60	80	100	100	100	100	70	100	100
C=Cc1cc2c(Cl)cc(F)c(-n3c(=O)cc(C(F)(F)F)n(C)c3=O)c2o1 [Compound 230]	100	40	80	100	100	100	100	80	100	100	95	40	80	100	100	90	100	70	100	90
